The text below walks through data of article PMC8614864, “Bioengineered System for High Throughput Screening of Kv1 Ion Channel Blockers” (Bioengineering, 2021).

Where two headings read alike, the source gives them in different places.

In test [1] the target is KcsA-Kv1.3-RFP. The experiment in a line: Direct titration of GFP-labeled toxins on spheroplasts by flow cytometry. As to conditions: slope by linear fitting of reduced data (maximum of normal distribution along GFP axis); one-site binding curve; 90–120 min incubation, 50 mM Tris–HCl pH 7.5 binding buffer; Mean ± SD (SD from fit, single dataset). (In general: A flow cytometer gives signals particle by particle.)

In test [2] the test system is KcsA-Kv1.3-RFP. The description is as above. It counts as binding. The protocol:
Spheroplasts were prepared according to the previously developed protocol. Briefly, E. coli cells (BL21 (DE3) strain) transformed with pET28a-KcsA-Kv1.3-RFP plasmid were cultivated in a minimal M9 medium at 37 °C up to OD560 = 0.8, then induced with 50 μM IPTG and further grown for 18 h. Cells were harvested by centrifugation (5000× g, 10 min, 4 °C), incubated in buffer A (10 mM Tris–HCl, pH 8.0, 0.5 m sucrose) containing lysozyme (20 μg/mL) for 7 min on ice, then diluted twofold with buffer B (10 mM Tris–HCl, pH 8.0, 0.3 mM ethylenediamine tetraacetic acid) and further incubated for 20 min. Then MgCl2 was added to a final concentration of 10 mM to stabilize the spheroplasts. Obtained in this way, the spheroplast suspension has OD560 of about 0.5 and was diluted for binding assay as described further.
For ligand binding analysis, a series of ligand dilutions were prepared in 12 × 75 mm flow cytometry test tubes. For this, 45 µL of toxin solution with a ten times higher concentration than the maximal concentration on titration curve was prepared. This solution was serially diluted with 3.16-fold step (13.9 µL of toxin solution + 30 µL buffer). These toxin dilutions were supplemented with 270 µL of spheroplast suspension at 10^6 cells/mL to give 300 µL final reaction mixtures. For analysis of displacement of GFP-labeled toxins by unlabeled toxins, spheroplast suspensions were supplemented with 1.1× concentration of GFP-labeled toxin before mixing with unlabeled toxin dilutions. All dilutions were made in a binding buffer: 0.25 M sucrose, […], 2 mM KCl, 50 mM NaCl, 10 mM MgCl2, 0.2% BSA and 50 mM Tris–HCl, pH 7.5.
To ensure equilibrium conditions, we analyzed samples after 90–120 min of incubation without removing toxins. Data acquisition was carried out with FC-500 flow cytometer (Beckman Coulter, Brea, CA, USA) using 488 nm excitation for both GFP and RFP and fluorescence detection with FL1 (505–545 nm) and FL3 (610–630 nm) channels for GFP and RFP, respectively. To minimize background fluorescence, samples were run at low speed that gave approx. 100–500 events/s. Events were triggered by side scatting (SSC) so that RFP-labeled cells constituted approx. 30% of events (Figure 2). Remaining events were also present in the samples of filtered binding buffer without cells, so were likely to be related to system noise (either electronic or optical) but not to the dim spheroplasts.
Automated data analysis was performed by a dedicated script after pre-processing with commercial software. The script was available in user-friendly Jupyter notebook format where data were processed stepwise, and user input-output was realized through an internet browser. This script is designed to process multiple datasets at once and can be easily adjusted for someone’s actual needs.
Initial preprocessing was done with used FlowJo v10 software (Treestar Inc., Wilmington, DE, USA). This was used for gating on cells by forward and side scatter, followed by gating of RFP-positive events (Figure 1) and exporting of gated data in FCS format. This step was preferable since it allowed one to convert data into a conventional FCS format (our flow cytometer import data in LMD file format) and to filter out off-target events such as system noise, cell debris, clumped and untransfected cells (without Kv1.3-RFP in our case). We also created a script for this preprocessing but found it more complicated and less robust than commercial software.
Filtered data were processed stepwise by a dedicated script, written in the Python programming language and available as a Jupyter notebook for running either on a local machine or in a kaggle data cloud (https://www.kaggle.com/georgesharonov/fcsgroupfit, accessed and executed on 14 November 2021). Data processing workflow was designed for high throughput analysis by processing all similar data in a single script execution. The processing steps were detailed within the notebook. […]

Test [3] relates to hybrid Kv1-KcsA channels expressed in the E. coli membrane. To be noted: laser scanning confocal microscopy, competitive binding; cited from earlier work. From the text:
In order to estimate the possibilities and limitations of the assay, the molecular details of blocker interaction with a natural and chimeric channel should be considered. The common feature of the peptide blocker binding is an occlusion of the pore with the side chain of a lysine residue, which is accompanied by the formation of multiple bonds between the peptide and amino acid residues surrounding the pore. Since the pore occlusion is the essential feature of any Kv1-channel blocker interacting with a channel at the extracellular side, the binding sites of peptide blockers and sm ...

On to “ChTx-GFP: hybrid protein, ChTx tagged N-terminally with eGFP, analogous to AgTx2-GFP; fluorescent probe”, for which the Kd (usually the concentration at which binding is half-saturated) stood at 0.74 ± 0.17 nM on KcsA-Kv1.3-RFP [1] and 0.735 nM at KcsA-Kv1.3-RFP [2] (binding curve of direct titration, reduced data, nonspecific binding subtracted, flow cytometry, read-out: Kd (printed in Figure 4A)). Besides, the “Slope, nonspecific binding” value with KcsA-Kv1.3-RFP [2] (1 nM labeled toxin + 316 nM ChTx, fitting of all events) is listed as 0.47; in the test on KcsA-Kv1.3-RFP [2] (1 nM labeled toxin + 316 nM ChTx, fitting of reduced data), 0.25; in the test with KcsA-Kv1.3-RFP [2] (10 nM labeled toxin + 316 nM ChTx, fitting of all events), 0.53; in the test with KcsA-Kv1.3-RFP [2] (10 nM labeled toxin + 316 nM ChTx, fitting of reduced data), 0.21. Moreover, the “Slope (proportional to occupied receptor fraction)” value with KcsA-Kv1.3-RFP [2] (1 nM labeled toxin, fitting of all events) is 0.55; with KcsA-Kv1.3-RFP [2] (1 nM labeled toxin, fitting of reduced data), 0.56; in the test with KcsA-Kv1.3-RFP [2] (10 nM labeled toxin, fitting of all events) it was 0.87; in the test with KcsA-Kv1.3-RFP [2] (10 nM labeled toxin, fitting of reduced data) it was 0.84.

Consider `CC[N+](CC)(CC)CC` [tetraethylammonium], for which the “competitive ligand for Kv1-KcsA hybrid channels” value in test [3] is given as “competitive ligand”.
